Measurements reported in patent publication US8557800B2, “Sphingosine kinase inhibitors” (Apogee Biotechnology Corporation, priority 2005, dated 2013).
Values joined by “and” are separate entries in the source; they are usually repeats but may differ in a detail not shown here. Equal entries are not always repeated.

Legend:
VCAM-1 = experiment: TNFα-induced adhesion molecule expression, Western analysis; assay type: cell-based; details: human endothelial cells, TNFα 100 ng/mL 6 hours, 25 μM compound
Method: (§1) Like endothelial cells in the body, HUVECs will proliferate in response to several growth factors, and will respond to inflammatory cytokines such as TNFα and IL-1β. Western analyses were conducted with human endothelial cells to evaluate the effects of the SK inhibitors on signaling proteins known to be regulated by TNFα. In these experiments, the cells were serum-starved for 24 hours and then exposed to TNFα (100 ng/mL) for 6 hours. Cell lysates from treated cells were assayed for the adhesion molecules ICAM-1 and VCAM-1. TNFα caused marked increases in the expression levels of adhesion proteins involved in leukocyte recruitment, including ICAM-1 and VCAM-1.

ICAM-1 = experiment: as above; assay type: cell-based; details: human endothelial cells, TNFα 100 ng/mL 6 hours, 25 μM compound
Method: as §1

[1] = tested on: VEGF-induced vascular leakage; experiment: VEGF-induced vascular permeability (Miles assay); assay type: in vivo, mouse; details: 75 mg/kg intraperitoneal or 100 mg/kg oral gavage, nude mice
Method: The effects of VEGF on vascular leakage in vivo were measured as described by Miles and Miles (Miles et al., 1952, J Physiol 118: 228). Groups of female athymic nude mice (approximately 20 g) were given intraperitoneal injections of DMSO alone or Compound 62 (75 mg/kg) in a volume of 50 microliters. In some experiments, Compound 62 was administered by oral gavage at a dose of 100 mg/kg. After 30 minutes, 100 μL of 0.5% Evan's blue dye in PBS was administered by tail vein injection. Thirty minutes later, mice received the first of 3 sequential (every 30 minutes) intradermal injections of VEGF (400 ng in 20 μL of PBS per injection) on the left hind flank. As a control, similar injections of PBS were administered on the right hind flank. Thirty minutes after the last injection, leakage of the dye from the vasculature into the skin was assessed by measuring the length and width of the spots of blue-colored skin using calipers.

[2] = tested on: Cox-2 activity in IEC6 rat intestinal epithelial cells; experiment: TNFα-induced PGE2 production, ELISA; assay type: cell-based; details: 100 ng of TNFα/mL 18 hours
Method: (§2) FIG. 6. Inhibition of TNFα-induced Cox-2 activity by Compound 62. Rat IEC6 cells (Panel A) or human endothelial cells (Panel B) were incubated for 18 hours with dimethylsulfoxide (DMSO) as a solvent control, or 100 ng of TNFα/mL in the presence of DMSO or […] of Compound 62. Levels of PGE2 secreted into the medium were quantified by ELISA. Values represent the mean±sd for triplicate samples in a typical experiment.
(§3) To determine the effects of the SK inhibitors on Cox-2 activity, an ELISA assay was used to measure PGE2 production by IEC6 rat intestinal epithelial cells and human endothelial cells treated with TNFα.

[3] = tested on: Cox-2 activity in human endothelial cells; experiment: TNFα-induced PGE2 production, ELISA; assay type: cell-based; details: 100 ng of TNFα/mL 18 hours
Method: as §2, §3

1025LU (melanoma) = experiment: Human tumor cell line panel, sulforhodamine B; assay type: cell-based; details: 48 hours, mean ± sd
[4] = tested on: mice, multiple cycles of DSS-induced inflammation; experiment: Chronic DSS-colitis model (35-day); assay type: in vivo, mouse
Method: FIG. 13. Effects of Compound 62 on the DAI in the chronic DSS-colitis model. Mice received 2 cycles (7 days per cycle) of DSS (1.5% cycle 1 and 1% cycle 2), 2 cycles of normal drinking water and were randomized by DAI on Day 28 into groups of 8 mice. The mice were then treated as follows: No DSS (▪)—normal drinking water and orally dosed with PEG400 every day for 7 days (water control); DSS alone (▴)—drinking water containing 1.5% DSS and orally dosed with PEG daily for 7 days; DSS+Compound 62 (▾)—drinking water containing 1.5% DSS and orally dosed with Compound 62 (50 mg/kg) every day for 7 days; DSS+Dipentum (♦)—drinking water containing 1.5% DSS and orally dosed with Dipentum (50 mg/kg). *p<0.001 versus No DSS group.
A 35-day model of IBD was used to evaluate the effectiveness of the SK inhibitors in mice that experience multiple cycles of DSS-induced inflammation. This chronic model is similar to the acute model, except that the DSS concentration in the drinking water is lower and animals receive periodic exposure to DSS (DSS on days 1-7, water on Days 8-13, DSS on day 14-21, water on Days 22-27 and then DSS until the completion of the study on Day 35). In these experiments, treatment of the mice with an SK inhibitor or Dipentum began on Day 28 and continued daily until the completion of the study. The DAI index was monitored every other day until Day 28 and then daily until Day 35. Animals were sacrificed on Day 35, and changes in the colon length and cytokine profiles were measured.

[5] = tested on: male Lewis rats, adjuvant-induced arthritis; experiment: Adjuvant-induced arthritis model; assay type: in vivo, rat
Method: Adjuvant-induced arthritis is another widely used assay that recapitulates many features of human rheumatoid arthritis, and so is useful in the evaluation of new drug candidates. Age- and weight-matched male Lewis rats (150-170 g) were injected subcutaneously in the tail with 1 mg of Mycobacterium butyricum (Difco, killed dried) suspended in 0.1 ml of light mineral oil. Symptoms of immune reactivity were present after 2 weeks. Responsive rats were randomized into treatment groups, and received oral daily doses (1 ml) of: solvent alone (0.375% Tween-80); 100 mg/kg Compound 62; 35 mg/kg Compound 62; or 5 mg/kg Compound 62, or intraperitoneal injections of indomethacin (5 mg/kg) every other day as a positive control. The severity of disease in each animal was quantified by measurement of the hind paw thickness.

HT-29 (colon) = experiment: Human tumor cell line panel, sulforhodamine B; assay type: cell-based; details: 48 hours, mean ± sd
physchem = details: aqueous with cosolvent or surfactant or cyclodextrin

## O=C(NCc1ccncc1)C12CC3CC(C1)CC(c1ccc(Cl)cc1)(C3)C2 [Compound 62, 3-(4-Chloro-phenyl)-adamantane-1-carboxylic acid (pyridin-4-ylmethyl)-amide]
VCAM-1
  TNFα induction of VCAM-1: completely abrogated
ICAM-1
  TNFα induction of ICAM-1: completely abrogated
[1]
  vascular leakage in response to VEGF: markedly reduced
[2]
  induction of Cox-2 activity by TNFα (PGE2 production): strongly suppressed
[3]
  induction of Cox-2 activity by TNFα (PGE2 production): strongly suppressed
1025LU (melanoma)
  IC50: 33.7 ± 2.7 µM
[4]; 50 mg/kg oral daily Day 28-35, DSS alone 4.9±0.2, water 7.8±0.3
  colon length: 6.2±0.2 cm
[4]; 50 mg/kg oral daily from Day 28 to Day 35, third DSS exposure
  increase in DAI: significantly suppressed
[4]; DSS mice, 50 mg/kg oral daily
  colon SK expression (immunohistochemistry): clearly reduced
[4]; at sacrifice, Day 35
  serum level of IL-6: reduced
[4]; oral 50 mg/kg daily, 7 days prior to sacrifice
  colon S1P levels: significant reductions
[4]; treated during the final DSS cycle
  colon levels of pro-inflammatory cytokines TNFα, IL-1β, IFN-γ and IL-6: reduced levels
[5]; 5 mg/kg oral daily
  reduction in the arthritic response (hind paw thickness): 13%
[5]; 35 mg/kg oral daily
  reduction in the arthritic response (hind paw thickness): 42%
[5]; 100 mg/kg oral daily
  reduction in the arthritic response (hind paw thickness): 76%
HT-29 (colon)
  IC50: 48.1 ± 7.6 µM
physchem
  solubility: ≥ 15000 µg/mL and 30000 µM to 40000 µM
